Assay results published in patent publication US20230339886A1 (University of Florida Research Foundation, Incorporated, priority 2020, published 2023).

Columns and labels:
[1] = molecular target: T1, REV-ERBα LBD (human; residues 281-614 Δ324-422) (Homo sapiens, UniProt P20393, DEL324-422); experiment: TR-FRET corepressor interaction assay (REV-ERBα LBD, FITC-SMRT peptide); format: biochemical; conditions: Table 2, read-out: REVERBα agonism (EC50 class, FRET assay)
T1 construct: 6×Histag-REV-ERBα LBD (human; residues 281-614 Δ324-422); made in house; host or cells: Escherichia coli
T1 sequence (P20393 with tags, fused parts or gaps DEL324-422): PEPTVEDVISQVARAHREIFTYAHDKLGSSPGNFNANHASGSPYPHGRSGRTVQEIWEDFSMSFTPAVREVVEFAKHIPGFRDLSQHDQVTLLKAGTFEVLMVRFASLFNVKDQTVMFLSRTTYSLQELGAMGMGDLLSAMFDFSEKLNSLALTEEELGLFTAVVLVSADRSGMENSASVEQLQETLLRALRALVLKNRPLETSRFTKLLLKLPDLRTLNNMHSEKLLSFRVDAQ
T1 sequence (Q9Y618 2335-2356 partner limits assumed): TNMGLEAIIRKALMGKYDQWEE
Procedure, shortened: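 Compound serial dilutions (in DMSO, triplicate) incubated 2 h at 4 °C; Tb donor excited at 340 nm, emission read at 495 nm and FITC acceptor at 520 nm. TR-FRET ratio (520/495 nm) plotted against ligand concentration and fitted to a sigmoidal dose-response curve.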

REV-ERBβ = molecular target: T2, REV-ERBβ (Homo sapiens, UniProt Q14995); experiment: TR-FRET corepressor interaction assay (REV-ERBβ, FITC-SMRT peptide); format: biochemical; conditions: Table 2, read-out: REVERBβ agonism (EC50 class, FRET assay)
T2 construct: 6×Histag-REV-ERBα LBD (human; residues 381-579); made in house; host or cells: Escherichia coli
T2 sequence (Q14995 381-579): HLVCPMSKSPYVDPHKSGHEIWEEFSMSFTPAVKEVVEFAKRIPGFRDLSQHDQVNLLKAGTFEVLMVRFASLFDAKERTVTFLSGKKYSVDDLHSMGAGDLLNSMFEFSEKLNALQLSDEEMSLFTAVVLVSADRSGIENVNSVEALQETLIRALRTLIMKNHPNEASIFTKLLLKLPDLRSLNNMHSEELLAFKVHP
Procedure: TR-FRET corepressor interaction assay. The time-resolved fluorescence resonance energy transfer (TR-FRET) assay was performed in black low-volume 384-well plates (Greiner). […] Ligand stocks were prepared via serial dilution in DMSO, added to wells in triplicate, and plates were incubated at 4° C. for 2 h and read using a BioTek Synergy Neo multimode plate reader. The Tb donor was excited at 340 nm; its fluorescence emission was monitored at 495 nm, and the acceptor FITC emission was measured at 520 nm; and the TR-FRET ratio was calculated as the signal at 520 nm divided by the signal at 495 nm. Data were plotted using GraphPad Prism as TR-FRET ratio vs. ligand concentration and fit to sigmoidal dose response curve equation.
Exemplary compounds of the present disclosure were assayed as described above to assess agonism of REV-ERBα and REV-ERBβ.

| EC50 [1] | EC50 (REV-ERBβ) | Structure (SMILES) |
| --- | --- | --- |
| 0.5 to 3 µM | > 3 µM | CC(C)Cn1cc(CCNS(=O)(=O)N(C)C)c2ccc(-c3cncnc3)cc21 [Compound 29, dimethyl({2-[1-(2-methylpropyl)-6-(pyrimidin-5-yl)-1H-indol-3-yl]ethyl}sulfamoyl)amine] |
| 0.5 to 3 µM | > 3 µM | CC(C)Cn1cc(CCNS(=O)(=O)N(C)C)c2ccc(-c3ccccn3)cc21 [Compound 31, dimethyl({2-[1-(2-methylpropyl)-6-(pyridin-2-yl)-1H-indol-3-yl]ethyl}sulfamoyl)amine] |
| 0.5 to 3 µM | > 3 µM | CC(C)Cn1cc(CCNS(=O)(=O)N(C)C)c2ccc(-c3ncccn3)cc21 [Compound 32, dimethyl({2-[1-(2-methylpropyl)-6-(pyrimidin-2-yl)-1H-indol-3-yl]ethyl}sulfamoyl)amine] |
| > 3 µM | > 3 µM | CC(C)Cn1cc(CCNS(=O)(=O)N(C)C)c2ccc(-c3cnn(C)c3)cc21 [Compound 33, dimethyl({2-[6-(1-methyl-1H-pyrazol-4-yl)-1-(2-methylpropyl)-1H-indol-3-yl]ethyl}sulfamoyl)amine] |
| < 0.5 µM | > 3 µM | CC(C)Cn1cc(CCNS(=O)(=O)N(C)C)c2ccc(-c3ccnn3C)cc21 [Compound 34, dimethyl({2-[6-(1-methyl-1H-pyrazol-5-yl)-1-(2-methylpropyl)-1H-indol-3-yl]ethyl}sulfamoyl)amine] |
| < 0.5 µM | > 3 µM | CC(C)Cn1cc(CCNS(=O)(=O)N(C)C)c2ccc(-c3cn[nH]c3)cc21 [Compound 35, dimethyl({2-[1-(2-methylpropyl)-6-(1H-pyrazol-4-yl)-1H-indol-3-yl]ethyl}sulfamoyl)amine] |
| > 3 µM | > 3 µM | CC(C)Cn1cc(CCNS(=O)(=O)N(C)C)c2ccc(-c3ccnc(N4CCOCC4)c3)cc21 [Compound 36, dimethyl({2-[1-(2-methylpropyl)-6-[2-(morpholin-4-yl)pyridin-4-yl]-1H-indol-3-yl]ethyl}sulfamoyl)amine] |
| < 0.5 µM | 0.5 to 3 µM | CC(C)Cn1cc(CCNS(=O)(=O)N(C)C)c2ccc(-c3ccnc4ccccc34)cc21 [Compound 37, dimethyl({2-[1-(2-methylpropyl)-6-(quinolin-4-yl)-1H-indol-3-yl]ethyl}sulfamoyl)amine] |
| > 3 µM | > 3 µM | CC(C)Cn1cc(CCNS(=O)(=O)N(C)C)c2ccc(-c3cccc4cnccc34)cc21 [Compound 38, ({2-[6-(isoquinolin-5-yl)-1-(2-methylpropyl)-1H-indol-3-yl]ethyl}sulfamoyl)dimethylamine] |
| < 0.5 µM | > 3 µM | CC(C)Cn1cc(CCNS(=O)(=O)N(C)C)c2ccc(-c3cccc4ccccc34)cc21 [Compound 39, dimethyl({2-[1-(2-methylpropyl)-6-(naphthalen-1-yl)-1H-indol-3-yl]ethyl}sulfamoyl)amine] |
| 0.5 to 3 µM | > 3 µM | CC(C)Cn1cc(CCNS(=O)(=O)N(C)C)c2ccccc21 [Compound 68, dimethyl({2-[1-(2-methylpropyl)-1H-indol-3-yl]ethyl}sulfamoyl)amine] |
| < 0.5 µM | 0.5 to 3 µM | CC(C)Cn1cc(CCNS(=O)(=O)N(C)C)c2ccc(C(C)C)cc21 [Compound 91, dimethyl({2-[1-(2-methylpropyl)-6-(propan-2-yl)-1H-indol-3-yl]ethyl}sulfamoyl)amine] |
| < 0.5 µM | > 3 µM | CCCc1ccc2c(CCNS(=O)(=O)N(C)C)cn(CC(C)C)c2c1 [Compound 98, dimethyl({2-[1-(2-methylpropyl)-6-propyl-1H-indol-3-yl]ethyl}sulfamoyl)amine] |
| < 0.5 µM | 0.5 to 3 µM | CC(C)Cn1cc(CCNS(=O)(=O)N(C)C)c2ccc(C3CCCC3)cc21 [Compound 99, ({2-[6-cyclopentyl-1-(2-methylpropyl)-1H-indol-3-yl]ethyl}sulfamoyl)dimethylamine] |
| < 0.5 µM | > 3 µM | CCc1ccc2c(CCNS(=O)(=O)N(C)C)cn(CC(C)C)c2c1 [Compound 100, ({2-[6-ethyl-1-(2-methylpropyl)-1H-indol-3-yl]ethyl}sulfamoyl)dimethylamine] |
| < 0.5 µM | 0.5 to 3 µM | CCC(C)n1cc(CCNS(=O)(=O)N(C)C)c2ccc(-c3ccncc3)cc21 (centres unmarked) [Compound 230] |
| < 0.5 µM | 0.5 to 3 µM | CC(C)CCn1cc(CCNS(=O)(=O)N(C)C)c2ccc(-c3ccncc3)cc21 [Compound 231] |

| EC50 [1] | EC50 (REV-ERBβ) | Structure (SMILES) |
| --- | --- | --- |
| < 0.5 µM | > 3 µM | CC(C)Cn1cc(CCNS(=O)(=O)C(C)C)c2cc(F)c(-c3ccccc3Cl)cc21 [Compound 262] |
| < 0.5 µM | > 3 µM | CC(C)Cn1cc(CCNS(=O)(=O)C(C)C)c2cc(F)c(-c3ccncc3Cl)cc21 [Compound 263] |
| < 0.5 µM | > 3 µM | CC(C)Cn1cc(CNS(=O)(=O)C(C)C)c2cc(F)c(-c3ccncc3)cc21 [Compound 265] |
| < 0.5 µM | 0.5 to 3 µM | CC(C)(C)Cn1cc(CNS(=O)(=O)C2CC2)c2cc(F)c(-c3ccccc3C(F)(F)F)cc21 [Compound 278] |
| < 0.5 µM | > 3 µM | CC(C)(C)Cn1cc(CNS(=O)(=O)C2CC2)c2cc(F)c(-c3ccncc3Cl)cc21 [Compound 279] |
| < 0.5 µM | > 3 µM | O=S(=O)(NCc1cn(CC2(C(F)(F)F)CC2)c2cc(-c3ccncc3Cl)c(F)cc12)C1CC1 [Compound 286] |
| < 0.5 µM | > 3 µM | CC(C)Cn1cc(CCNS(=O)(=O)N(C)C)c2ccc(-c3c(Cl)cccc3Cl)cc21 [Example 80, N-{2-[6-(2,6-dichlorophenyl)-1-(2-methylpropyl)-1H-indol-3-yl]ethyl}-N,N-dimethyl-sulfuric diamide] |
| < 0.5 µM | > 3 µM | CC(C)Cn1cc(CCNS(=O)(=O)N(C)C)c2ccc(C(F)(F)F)cc21 [Example 105, dimethyl({2-[1-(2-methylpropyl)-6-(trifluoromethyl)-1H-indol-3-yl]ethyl}sulfamoyl)amine] |
| < 0.5 µM | > 3 µM | Cc1cc2c(CCNS(=O)(=O)N(C)C)cn(CC(C)C)c2cc1C [Example 120, ({2-[5,6-dimethyl-1-(2-methylpropyl)-1H-indol-3-yl]ethyl}sulfamoyl)dimethylamine] |
| 0.5 to 3 µM | > 3 µM | CC(C)Cn1cc(CCNS(=O)(=O)N(C)C)c2cccc(Br)c21 [Example 137, ({2-[7-bromo-1-(2-methylpropyl)-1H-indol-3-yl]ethyl}sulfamoyl)dimethylamine] |
| < 0.5 µM | > 3 µM | CC(C)C(=O)n1cc(C(C)NS(=O)(=O)N(C)C)c2ccc(-c3ccncc3)cc21 (centres unmarked) [Example 180, 1-(3-{1-[(dimethylsulfamoyl)amino]ethyl}-6-(pyridin-4-yl)-1H-indol-1-yl)-2-methylpropan-1-one] |
| < 0.5 µM | 0.5 to 3 µM | CC(C)C(=O)n1cc(C(C)NS(=O)(=O)N(C)C)c2ccc(-c3ccccc3C(F)(F)F)cc21 (centres unmarked) [Example 195, 1-(3-{1-[(dimethylsulfamoyl)amino]ethyl}-6-[2-(trifluoromethyl)phenyl]-1H-indol-1-yl)-2-methylpropan-1-one] |
| < 0.5 µM | 0.5 to 3 µM | Cc1c(-c2ccncc2)ccc2c(CCNS(=O)(=O)N(C)C)cn(C(=O)C(C)C)c12 [Example 199, 1-(3-{2-[(dimethylsulfamoyl)amino]ethyl}-7-methyl-6-(pyridin-4-yl)-1H-indol-1-yl)-2-methylpropan-1-one] |
| < 0.5 µM | > 3 µM | Cc1c(-c2ccncc2)ccc2c(CCNS(=O)(=O)N(C)C)cn(CC(C)C)c12 [Example 200, dimethyl({2-[7-methyl-1-(2-methylpropyl)-6-(pyridin-4-yl)-1H-indol-3-yl]ethyl}sulfamoyl)amine] |
| < 0.5 µM | > 3 µM | CC(C)Cn1cc(CCNS(=O)(=O)N(C)C)c2ccc(-c3ccncc3)nc21 [Example 203, dimethyl({2-[1-(2-methylpropyl)-6-(pyridin-4-yl)-1H-pyrrolo[2,3-b]pyridin-3-yl]ethyl}sulfamoyl)amine] |
| < 0.5 µM | 0.5 to 3 µM | CC(C)(C)Cc1cn(CCNS(=O)(=O)C2CC2)c2ccc(-c3ccccc3C(F)(F)F)cc12 [Example 212, N-(2-(3-neopentyl-5-(2-(trifluoromethyl)phenyl)-1H-indol-1-yl)ethyl)cyclopropane sulfonamide] |
| < 0.5 µM | 0.5 to 3 µM | CC(C)(C)Cc1cn(CCNS(=O)(=O)C2CC2)c2ccc(-c3c(Cl)cccc3Cl)cc12 [Example 214, N-(2-(5-(2,6-dichlorophenyl)-3-neopentyl-1H-indol-1-yl)ethyl)cyclopropane-sulfonamide] |
